Laboratory results published in article PMC10531071, “Furmonertinib, a Third-Generation EGFR Tyrosine Kinase Inhibitor, Overcomes Multidrug Resistance through Inhibiting ABCB1 and ABCG2 in Cancer Cells” (International Journal of Molecular Sciences, 2023).
pEC50: −log10 of the molar value.

Tests used:
[1] = target: ABCB1 (P-glycoprotein; MDR1) (Homo sapiens, UniProt P08183); assay: vanadate-sensitive ATPase stimulation in High-Five insect cell membrane vesicles; also calcein-AM efflux inhibition in MDR19-HEK293 cells (IC50 […]); type: biochemical
ABCG2 (BCRP; MXR; ABCP) = target: T1, ABCG2 (BCRP; MXR; ABCP) (Homo sapiens, UniProt Q9UNQ0); assay: vanadate-sensitive ATPase stimulation in High-Five insect cell membrane vesicles; also PhA efflux inhibition in R482-HEK293 cells (IC50 […]); type: biochemical
T1 sequence (Q9UNQ0 1-655): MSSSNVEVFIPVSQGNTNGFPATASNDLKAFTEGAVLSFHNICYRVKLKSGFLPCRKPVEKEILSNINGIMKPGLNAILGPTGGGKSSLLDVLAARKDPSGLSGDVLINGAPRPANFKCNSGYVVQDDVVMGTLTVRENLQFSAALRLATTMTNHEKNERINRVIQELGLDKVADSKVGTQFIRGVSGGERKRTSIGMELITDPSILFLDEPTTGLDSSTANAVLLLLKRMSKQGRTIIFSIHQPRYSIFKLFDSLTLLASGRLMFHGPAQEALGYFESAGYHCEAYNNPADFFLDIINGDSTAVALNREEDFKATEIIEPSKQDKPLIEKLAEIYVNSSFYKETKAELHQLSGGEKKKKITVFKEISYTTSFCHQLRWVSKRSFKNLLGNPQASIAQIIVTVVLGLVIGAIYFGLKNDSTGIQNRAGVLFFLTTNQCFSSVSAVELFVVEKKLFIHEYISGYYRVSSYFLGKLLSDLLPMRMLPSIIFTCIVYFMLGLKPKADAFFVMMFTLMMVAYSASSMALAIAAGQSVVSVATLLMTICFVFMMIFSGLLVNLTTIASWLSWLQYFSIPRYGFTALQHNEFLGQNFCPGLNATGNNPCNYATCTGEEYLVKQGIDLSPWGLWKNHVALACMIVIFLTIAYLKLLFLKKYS

ABCB1 (P-glycoprotein; MDR1), sequence (P08183 whole entry): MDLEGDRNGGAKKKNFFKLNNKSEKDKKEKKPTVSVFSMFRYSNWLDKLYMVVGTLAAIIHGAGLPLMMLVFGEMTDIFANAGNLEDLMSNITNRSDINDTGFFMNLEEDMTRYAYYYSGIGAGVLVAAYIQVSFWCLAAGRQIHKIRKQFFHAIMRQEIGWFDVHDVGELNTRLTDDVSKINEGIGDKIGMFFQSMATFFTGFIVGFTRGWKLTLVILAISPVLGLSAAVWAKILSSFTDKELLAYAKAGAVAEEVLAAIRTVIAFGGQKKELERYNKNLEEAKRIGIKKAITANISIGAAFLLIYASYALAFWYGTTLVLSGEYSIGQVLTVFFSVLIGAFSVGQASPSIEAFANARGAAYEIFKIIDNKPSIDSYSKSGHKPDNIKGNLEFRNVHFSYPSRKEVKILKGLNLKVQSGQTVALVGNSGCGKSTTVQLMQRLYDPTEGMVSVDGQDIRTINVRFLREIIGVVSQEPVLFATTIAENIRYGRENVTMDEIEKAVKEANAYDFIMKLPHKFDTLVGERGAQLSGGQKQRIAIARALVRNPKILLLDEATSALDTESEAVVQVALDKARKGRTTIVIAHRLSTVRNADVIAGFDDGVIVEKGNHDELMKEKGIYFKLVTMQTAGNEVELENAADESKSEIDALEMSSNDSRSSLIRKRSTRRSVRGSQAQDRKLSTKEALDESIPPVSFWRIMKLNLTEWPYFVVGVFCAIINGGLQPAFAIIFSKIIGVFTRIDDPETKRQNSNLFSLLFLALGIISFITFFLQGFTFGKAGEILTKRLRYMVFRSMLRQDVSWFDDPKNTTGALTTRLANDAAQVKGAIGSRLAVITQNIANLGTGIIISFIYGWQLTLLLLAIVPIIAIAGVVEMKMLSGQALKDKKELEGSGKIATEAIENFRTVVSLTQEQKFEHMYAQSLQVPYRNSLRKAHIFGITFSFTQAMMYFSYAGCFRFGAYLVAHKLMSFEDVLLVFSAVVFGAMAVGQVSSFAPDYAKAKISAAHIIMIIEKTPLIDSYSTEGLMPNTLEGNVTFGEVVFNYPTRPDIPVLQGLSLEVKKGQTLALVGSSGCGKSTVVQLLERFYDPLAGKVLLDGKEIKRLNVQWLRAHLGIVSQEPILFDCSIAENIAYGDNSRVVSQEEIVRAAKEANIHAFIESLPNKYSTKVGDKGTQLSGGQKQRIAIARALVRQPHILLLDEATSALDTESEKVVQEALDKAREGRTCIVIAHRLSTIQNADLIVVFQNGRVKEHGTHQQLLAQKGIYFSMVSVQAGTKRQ

- pEC50 [1]: ~6.22
- pEC50 (ABCG2 (BCRP; MXR; ABCP)): ~8.52
SMILES: C=CC(=O)Nc1cc(Nc2nccc(-c3cn(C)c4ccccc34)n2)c(OCC(F)(F)F)nc1N(C)CCN(C)C [furmonertinib]
